Source: patent US20130281313A1, “PROGNOSTIC AND/OR PREDICTIVE BIOMARKERS AND BIOLOGICAL APPLICATIONS THEREOF” (INSTITUT GUSTAVE ROUSSY, priority 2010, published 2013)

Tests used:
Format in all cases: cell-based, human
A549 cells [1] = test: Targeted metabolomic studies (ATP, ADP, AMP, GSH; RRLC-MS); settings: A549 cells, 24 h
Protocol: A549 cells were left untreated or treated with 25 μM CDDP alone or in combination with 5 mM PN, for 24 h. Thereafter, both attached (living) and detached (dying/dead) cells were harvested, washed once in cold PBS and pelleted (800 G for 5 min). Pellets were resuspended in 200 μL deionized water, briefly vortexed and sonicated. 800 μl ice-cold methanol was added, and samples were kept in ice for 15 min, vortexed and centrifuged at 13,000 G for 10 min at 4° C. Supernatants were dried in a SpeedVac drier (Thermo Scientific-Pierce) and stored at −80° C. until analysis. Pellets were resuspended in 150 μL 98:2 water/acetonitrile immediately before analytical determinations (see below).
ATP, ADP, AMP and GSH were quantified on a Rapid Resolution Liquid Chromatography (RRLC) 1200SL system coupled to a 6410 Triple Quadripole (QQQ) mass spectrometer (both from Agilent Technologies). For nucleotides, RRLC was performed on 150×2.1 mm, 3.5 μM Eclipse Plus columns (Agilent Technologies) with water containing 4 mM dimethylhexylamine (DMHA) plus 0.01% (v/v) acetic acid in channel A and acetonitrile in channel B, in gradient mode at a flow rate of 0.2 mL/min: t=0 min 2% B; t=9 min 32% B; t=10 min 95% B; T=12 min 95% B, re-equilibration time=6 min. Mass spectrometry was performed in positive electrospray ionization mode at +4 kV on the QQQ system operating in MRM mode. MRM transitions were optimized with direct infusions of ATP, ADP, and AMP standards with direct infusion, and four transitions were recorded for each compounds. Parent ions were adduct ions of DMHA and also proton adducts:
For GSH, RRLC was performed on a 150×2.1 mm, 3.5 μM Stable Bond AQ column (Agilent Technologies) with water containing 0.2% (v/v) acetic acid in channel A and methanol in channel B, in gradient mode at a flow rate of 0.3 mL/min: t=0 min 2% B; t=8 min 95% B; t=9 min 95% B; re-equilibration time=6 min. Mass spectrometry was performed as above. MRM transitions were optimized with direct infusion of GSH standards.
Data collection and analysis were performed with the MassHunter software (Agilent Technologies).

[2] = tested on: TP53 (phospho-Ser15, phospho-Ser46), caspase-3, caspase-9; test: Immunoblotting of the intrinsic apoptosis pathway; settings: A549 cells, sub-apoptotic (25 μM) CDDP in the presence of PN
Protocol: For the preparation of total protein extracts A549 cells were washed with cold PBS and lysed in a buffer containing 1% NP40, 20 mM HEPES (pH 7.9), 10 mM KCl, 1 mM EDTA, 10% glycerol, 1 mM orthovanadate, 1 mM PMSF, 1 mM dithiothreitol, 10 μg/mL aprotinin, 10 μg/mL leupeptin, and 10 μg/mL pepstatin, according to established protocols {Zermati, 2007}. […]

A549 cells [3] = test: Quantification of intracellular PN (LC-MS/MS); settings: 24 or 48 h
Protocol: A549 cells were cultured in absence or the presence of 5 mM PN for 24 or 48 h, harvested, washed once in cold PBS and pelleted at 800 G for 10 min. Supernatants were discarded and pellets were dissolved in 500 μL of deionized H2O by vortexing for 1 min followed by sonication for 10 min. Thereafter, lysates were centrifuged at 5,796 G for 10 min and 60 μL of the resulting supernatant were mixed with an equal volume of trichloroacetic acid (TCA). Upon additional centrifugation (5,796 G, 10 min), 50 μL of sample were injected onto the chromatographic column and PN was measured by liquid chromatography with tandem mass spectrometry (LC-MS/MS), as previously described {Johansson, 2010; Midttun, 2009}.

## N.N.[Cl][Pt][Cl] [CDDP, cis-diammineplatinum(II) dichloride]
A549 cells [1]; 25 μM CDDP
  intracellular levels of GSH: a decrease in the intracellular levels of GSH

## Cc1ncc(CO)c(CO)c1O [PN, pyridoxine]
[2]
  activating phosphorylation of TP53 on serines 15 and 46: an increased activating phosphorylation of TP53 on serines 15 and 46
  activation of caspases-3 and -9: an increased activation of caspases-3 and -9
A549 cells [3]
  intracellular PN concentration upon acute addition: increased the intracellular PN concentration
A549 cells [1]; 25 μM CDDP and 5 mM PN in combination, not present with either compound alone
  Atkinson's energy charge: exhibited a bioenergetic defect
A549 cells [1]; 25 μM CDDP with 5 mM PN
  CDDP-induced decrease in GSH and redox-relevant metabolites (carnitine, acetylcarnitine, propionylcarnitine): largely exacerbated by PN
